US20240139210A1, “TREATMENT OF NF-KB-MEDIATED DISEASE” (ReveraGen BioPharma, Inc., priority 2020, published 2024)
Like-named read-outs stand apart in the source and are kept apart here.

Legend:
[1] = tested on: boys with DMD; settings: cited from earlier work; for LS Mean change in height percentiles for age: 12-month treatment period, DMD
[2] = tested on: participants with DMD; settings: CINRG DNHS, deflazacort n = 94, prednisone n = 80; cited from earlier work
[3] = tested on: ambulant boys aged 4 to <7 years with DMD; experiment: VBP15-004 growth (height Z scores); type: in vivo, human; settings: prednisone 0.75 mg/kg/day
Text: (§1) The second period of 24 weeks, where all participants receive vamorolone treatment on either of the two dose levels, will continue to capture additional longer-term safety and tolerability data.

[4] = tested on: ambulant boys aged 4 to <7 years with DMD; experiment: VBP15-004 bone turnover biomarkers; type: in vivo, human; settings: Prednisone 0.75 mg (N = 24)
[5] = tested on: ambulant boys aged 4 to <7 years with DMD; experiment: VBP15-004 adverse events; parameters: species or system human; settings: male, human, in vivo, 24 weeks
Text: as §1
The study completion rate at 24 weeks was 94% (or 114 of 121 participants).
Pre-specified AESIs typically for corticosteroids were higher in prednisone-treated subjects than vamorolone-treated subjects after 24 weeks of treatment (Table 10).

[6] = tested on: boys with DMD; experiment: CINRG 12-month prednisone clinical trial, external comparator; type: in vivo, human; settings: vamorolone 18-month treatment versus prednisone trial 12-month treatment
Protocol: As with the CINRG DNHS comparators, group-matching criteria were prespecified in the iSAP, and 2 independent statisticians carried out the participant matching. […] There was no corresponding 12-month assessment in vamorolone-treated participants. (Assessments of vamorolone-treated trial participants were 0, 3, 6, and 18 months).
Participants in the corticosteroid-treated CINRG DNHS group were treated for at least 18 months, but the total duration, dose, and regimens varied.

[7] = 0.9 mg/kg/day deflazacort (n = 68), 0.75 mg/kg/day prednisone (n = 63)

SMILES	Incidence of physician-reported Cushingoid [1, 7]	Incidence of physician-reported behavior change [1, 7]	Incidence of physician-reported hypertrichosis/hirsutism [1, 7]	Incidence of physician-reported weight gain [1, 7]	LS Mean change in height percentiles for age [1]	LS Mean change in height percentiles for age ([1]; listed as deflazacort)	Incidence of physician-reported Cushingoid [2]	Incidence of physician-reported behavior change [2]	Incidence of physician-reported weight gain [2]	change in height Z scores from baseline to Week 24 [3]	Osteocalcin, mean (SEM) change at Week 24 [4]	Procollagen 1 N-Terminal Propeptide (P1NP), mean (SEM) change at Week 24 [4]	Type I Collagen C-Telopeptides (CTX), mean (SEM) change at Week 24 [4]	clinically relevant psychiatric events, subjects [5]	incidence of behavior problems [5]	moderate/severe behavior problems, subjects [5]	Mean BMI z-score, LS mean difference (SE), ANCOVA [6]	Mean height percentile for age, LS mean difference (SE), ANCOVA [6]
CC(=O)OCC(=O)[C@@]12N=C(C)O[C@@H]1C[C@H]1[C@@H]3CCC4=CC(=O)C=C[C@]4(C)[C@H]3[C@@H](O)C[C@@]12C [Deflazacort, deflazacort]	60.3%	9%	35%	27.9%	−11.4 percentile	−11.43 percentile	72%	33%	63%	–	–	–	–	–	–	–	–	–
C[C@]12C=CC(=O)C=C1CC[C@@H]1[C@@H]2C(=O)C[C@@]2(C)[C@H]1CC[C@]2(O)C(=O)CO [Prednisone, prednisone]	–	–	–	–	–	–	–	–	–	growth deceleration	−15.2 (2.7) ng/ml	−134 (22) ng/mL	−300 (43) pg/mL	19.4%	32.3%	22.6%	0.066 (0.193)	10.37 (3.86) percentile
